Laboratory results reported in patent US11457624B2, “Adjuvant compositions for plant treatment chemicals” (CORBET SCIENTIFIC, LLC, priority 2016, dated 2022).

Key:
[1] = tested on: bacterial spot (Xanthomonas euvesicatoria) on pepper; assay: Bacterial spot on pepper, field trial (disease severity, AUDPC); format: in vivo
Method: (§1) Field studies were conducted at the University of Florida, Southwest Florida Research and Education Center, Immokalee, Fla. For pepper trials, average monthly high and low temperatures were 98° F. and 70° F. in month one; 94° F. and 63° F. in month two; and 94° F. and 51° F. in month three; rainfall totaled 11.02, 0.95, and 2.41 inches for the same monthly periods, respectively. For squash trials, average monthly high and low temperatures were 93° F. and 45° F. in month one; 96° F. and 55° F. in month two; and 96° F. and 55° F. in month three; rainfall totaled 2.00, 3.35, and 5.59 inches for the same monthly periods, respectively.
(§2) In all trials, seedlings were transplanted into Immokalee fine sand on day 0. Treatments were arranged in a complete randomized block treatment design with four replicates. For pepper trials, ‘Capistrano’ seedlings were arranged in plots comprising 10 plants in a single row spaced 10 inches apart within a 36 inch wide row with 5 feet between each plot and 12 feet center to center between rows. For squash trials, four week old ‘Dixie’ plants were arranged in plots comprising eight plants spaced 3 feet apart with a 27 foot row and with 10 feet between each plot.
(§3) Each treatment formulation was spray applied. For pepper trials, treatment formulations were applied using a backpack CO2 sprayer at 40 psi with a single hollow-cone nozzle at 30 gal/A. Silicon was applied as sodium metasilicate nonahydrate (Na2SiO3.9H2O). For squash trials, treatment formulations were applied with a high clearance sprayer 2 mph and at 200 psi. A double drop boom equipped with six nozzles delivered a spray volume of 90 gal/A for tomato plants or 80 gal/A for squash plants.
For pepper trials, a suspension of inoculum of bacterial spot containing strains of several races was applied at day 22 and new inoculum was introduced periodically throughout the remainder of the trial.
(§4) For each trial, disease severity was assessed by visually estimating the percentage of foliage with symptoms of disease. For pepper trials, plants were examined for symptoms of bacterial spot. For squash trials, plants were examined for powdery mildew. The area under the disease progress curve (AUDPC) was calculated from disease severity ratings. In some trials, fruit was harvested and evaluated for the amount of marketable fruit produced per plot. Data were analyzed within the statistical program of ARM 9.1 (pepper trials) or ARM 9.0 (tomato and squash trials) by ANOVA and means separated by LSD.
Transplanted Capsicum annuum ‘Capistrano’ pepper seedlings were grouped into one of six treatment groups. Group one was an untreated control. The remaining five groups were spray treated with formulations that differed in their chemical compositions (Table 7).
plants on days 14, 21, 28, 35, 42, 49, 56, 64, 71, 77, and 84. Plants were inoculated with a bacterial suspension (Xanthomonas euvesicatoria) on day 22 and periodically throughout the remainder of the trial. […]

[2] = tested on: Capsicum annuum Capistrano pepper plants; assay: Pepper harvest data, field trial; format: in vivo
Method: as §1, §2, §3, §4
Fruit was harvested on days 61 and 83.

[3] = tested on: woody shrubs and mixed grasses; conditions: general statement, no source given; cited from earlier work
[4] = sprays A-K, rates as in Table 7

Compound	AUDPC (area under the disease progress curve) ([1]; calculated from disease severity ratings) [ab]	Disease Severity Day 41 ([1]; sprays A-K (Day 14-84), rates as in Table 7, inoculated day 22)	Disease Severity Day 47 [1, 4]	Disease Severity Day 58 [1, 4]	Disease Severity Day 61 [1, 4]	Disease Severity Day 71 [1, 4]	Marketable Fruit in Pound per Plot ([2]; Day 61) [a Pound per Plot]	Number of Marketable Fruit per Plot ([2]; Day 61) [a per Plot]	Marketable Number of Fruit per Plot ([2]; Day 83) [a per Plot]	Marketable fruit weight per plot ([2]; Day 83) [a Pound per Plot]	Non-Marketable Fruit in Pound per Plot ([2]; Day 83) [a Pound per Plot]	Non-Marketable Fruit per Plot ([2]; Day 83) [ab per Plot]	time normally required to begin to see an effect on grassy plants [3]
O.O.O.O.O.O.O.O.O.O=[Si]([O-])[O-].[Na+].[Na+] [Silicon, sodium metasilicate nonahydrate]	518.42	10.3 a percentage of symptomatic foliage	21.5 a percentage of symptomatic foliage	21.3 ab percentage of symptomatic foliage	15 ab percentage of symptomatic foliage	22.5 ab percentage of symptomatic foliage	2.9	12	26.3	7.38	0.35	1	
CC(C)C1(C)N=C(c2ncccc2C(=O)O)NC1=O (stereo not shown) [Imazapyr]													2-5 months
